According to PubChem BioAssay (NCI):
Several values for one entry are separate records, joined by “and”; a condition that tells them apart may be missing. Equal values may be shown once.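 96-well plates; 48 h exposure; 5 concentrations. Endpoints by linear interpolation between flanking doses. Not reached: highest tested concentration assigned. GI50 is the concentration that inhibits growth by half. TGI denotes the concentration required for complete inhibition of growth.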

Legend:
Assay in all cases: DTP human tumour cell line panel, 48 h
MALME-3M melanoma = system: MALME-3M melanoma
COLO 205 colon = system: COLO 205 colon
SK-MEL-28 melanoma = system: SK-MEL-28 melanoma
OVCAR-8 ovarian = system: OVCAR-8 ovarian
ACHN renal = system: ACHN renal
HL-60(TB) leukemia = system: HL-60(TB) leukemia
A498 renal = system: A498 renal
HCT-116 colon = system: HCT-116 colon
NCI-H522 lung = system: NCI-H522 lung
NCI-H23 lung = system: NCI-H23 lung

Structure (SMILES) | TGI (MALME-3M melanoma) | TGI (COLO 205 colon) | TGI (SK-MEL-28 melanoma) | TGI (OVCAR-8 ovarian) | TGI (ACHN renal) | TGI (HL-60(TB) leukemia) | TGI (A498 renal) | TGI (HCT-116 colon) | GI50 (COLO 205 colon) | GI50 (SK-MEL-28 melanoma) | GI50 (OVCAR-8 ovarian) | GI50 (ACHN renal) | GI50 (NCI-H522 lung) | TGI (NCI-H522 lung) | GI50 (HL-60(TB) leukemia) | GI50 (HCT-116 colon) | GI50 (NCI-H23 lung) | TGI (NCI-H23 lung) | GI50 (MALME-3M melanoma) | GI50 (A498 renal)
O=C(O)c1ccccc1NC(=O)C1CCCCC1 | > 100 µM | > 100 µM | > 100 µM | > 100 µM | > 100 µM | > 100 µM | > 100 µM | > 100 µM | – | – | – | – | – | – | – | – | – | – | – | –
COc1ccc(Nc2c3ccccc3nc3[nH]c4ccccc4c23)cc1 | – | > 50 µM | > 50 µM | > 50 µM | 25 µM | > 50 µM | – | 28 µM | 17.8 µM | 18.5 µM | 30.2 µM | 7.36 µM | 41.5 µM | > 50 µM | 4.98 µM | 4.83 µM | > 50 µM | > 50 µM | – | –
CCN(CC)CCSCCCNc1c2ccc(Cl)cc2nc2ccc(OC)cc12 | 3.73 µM | 2.25 µM | 3.8 µM | 3.54 µM | 3.05 µM | 4.11 µM | 2.16 µM | 2.07 µM | 0.8 µM | 1.84 µM | 1 µM | 0.719 µM | 1.39 µM | 3.13 µM | 1.55 µM | 0.488 µM | 1.32 µM | 3.28 µM | 2.03 µM | 0.654 µM
CC(=O)Oc1ccc(C(c2ccc(OC(C)=O)cc2)c2ccccn2)cc1 | > 100 µM | 36.5 µM and > 69.4 µM | > 100 µM | > 100 µM | > 100 µM | 70 µM and 69.7 µM | > 100 µM | > 100 µM | 0.463 µM | 61.5 µM | 21.8 µM | 36.8 µM | 59 µM | > 100 µM | 25.4 µM | 40.7 µM | 5.08 µM | > 100 µM | 29.4 µM | 8.9 µM
c1ccc2c(c1)C1=NCCN1c1ccccc1-2 | 6.77 µM | 2.77 µM | 15.2 µM | 11.5 µM | 7.36 µM | 5.17 µM | 8.82 µM | 10.4 µM | – | – | – | – | – | 3.13 µM | – | – | – | 6.65 µM | – | –
O=C(CC1C(=O)Nc2ccccc2S1=O)Nc1ccc(Cl)cc1 (stereo not given) | > 100 µM | > 100 µM | > 100 µM | > 100 µM | > 100 µM | > 100 µM | – | – | – | – | – | – | – | > 100 µM | – | – | – | > 100 µM | – | –
CC1=C(/C=C/C(C)=C/C=C/C(C)=C/CO)C(C)(C)CCC1 | 29.1 µM | 38.3 µM | 48.5 µM | – | > 100 µM | 45.3 µM | 42.6 µM | – | – | – | – | – | – | 54.7 µM | – | – | – | 54.8 µM | – | –
O=C1C=CC(CC(=O)c2ccc3ccccc3c2)O1 (stereo not given) | > 100 µM | 31.9 µM | > 100 µM | 32.8 µM | > 100 µM | 37.3 µM | 46.1 µM | 32.3 µM | – | – | – | – | – | – | – | – | – | 46.7 µM | – | –
O=C1OC(c2ccccc2)=N/C1=C\c1cccc(F)c1 | – | > 100 µM | > 100 µM | 64.9 µM | > 100 µM | 61.2 µM | > 100 µM | > 100 µM | – | – | – | – | – | 40.1 µM | – | – | – | > 100 µM | – | –
COc1ccc(Nc2cc(C)nc(N3CCN(c4ccnc5cc(Cl)ccc45)CC3)n2)cc1 | > 100 µM | 3.96 µM | – | > 100 µM | – | 12.8 µM | 7.26 µM | 3.24 µM | 1.96 µM | – | 3.25 µM | – | 2.02 µM | 5.27 µM | 3.12 µM | 1.34 µM | 3.82 µM | > 100 µM | 3.17 µM | 0.832 µM
CC12Oc3ccc4ccccc4c3CC1Cc1c(ccc3ccccc13)O2 (stereo not given) | 17 µM | > 100 µM | > 100 µM | > 100 µM | > 100 µM | > 100 µM | – | > 100 µM | – | – | – | – | – | > 100 µM | – | – | – | > 100 µM | – | –
Cc1c(Sc2ccccc2)[n+](=O)c2cc(Cl)c(Cl)cc2n1[O-] | – | > 100 µM | > 100 µM | > 100 µM | 41.6 µM | – | – | 59.4 µM | 49 µM | > 100 µM | 25.6 µM | 20.5 µM | 23.6 µM | 57.7 µM | – | 27.4 µM | 33.2 µM | > 100 µM | – | –
CCn1c2ccccc2c2cc(C(O)c3cccc4ncccc34)ccc21 (stereo not given) | – | 0.251 µM | > 100 µM | > 69.4 µM | 41.9 µM | 0.0787 µM | 0.267 µM | 15.4 µM | 0.0427 µM | 3.47 µM | 0.122 µM | 0.0715 µM | 0.0212 µM | 0.107 µM | 0.0279 µM | 0.0441 µM | 0.0958 µM | 19.5 µM | – | 0.0251 µM
O=C1OC(OCC#CCOC2OC(=O)C(Cl)=C2Cl)C(Cl)=C1Cl (stereo not given) | – | – | 30.1 µM | 20.8 µM | 30.5 µM | – | – | 21.8 µM | – | – | – | – | – | 3.72 µM | – | – | – | 40.9 µM | – | –
O=C1OC(CN2CCOCC2)CN1/N=C/c1ccc([N+](=O)[O-])o1 (stereo not given) | 46.6 µM | > 100 µM | > 100 µM | > 100 µM | > 100 µM | > 100 µM | – | 39.3 µM | – | – | – | – | – | 72.3 µM | – | – | – | 53.9 µM | – | –
Cc1cc2c(C)n(Cc3ccc(Cl)cc3Cl)nc2c(C(=O)O)c1C | > 100 µM | > 100 µM | > 100 µM | > 100 µM | > 100 µM | > 100 µM | – | > 100 µM | – | – | – | – | – | – | – | – | – | > 100 µM | – | –
Nn1c(N=Nc2c(O)[nH]c3c(Cl)cc(Cl)cc23)n[nH]c1=S | > 100 µM | > 100 µM | – | > 100 µM | > 100 µM | > 100 µM | > 100 µM | > 100 µM | – | – | – | – | – | > 100 µM | – | – | – | > 100 µM | – | –
O=C(Nc1ccc(Cl)c(Cl)c1)OCCN1c2ccccc2Sc2ccccc21 | > 10 µM | > 10 µM | > 10 µM | > 10 µM | > 10 µM | > 10 µM | – | > 10 µM | – | – | – | – | – | > 10 µM | – | – | – | > 10 µM | – | –
NCCSCCc1ccccc1 | > 100 µM | > 100 µM | > 100 µM | > 100 µM | > 100 µM | – | > 100 µM | > 100 µM | – | – | – | – | – | > 100 µM | – | – | – | > 100 µM | – | –
